Measurements from patent US11642350B2, “Agent for preventing myopia, treating myopia, and/or preventing myopia progression comprising tiotropium as active ingredient” (priority 2017, dated 2023).
Counter-ions that a name gives are not always drawn.

Tests used:
Myopia Mice Model = experiment: Suppression of axial length elongation in myopia mice model (spectacle lens-induced, eyedrop); assay type: in vivo, mice (C57BL/6J); conditions: 7 μL topically once a day, post-natal day 33 to 61, -15D lens, mouse
Procedure: Test 2. Test About Suppression of Axial Length Elongation in Myopia Mice Model
Tiotropium bromide hydrate and glycerin were dissolved in water for injection to prepare 0.0001% (w/v) and 0.01% (w/v) tiotropium ophthalmic solutions without adjusting pH.
In a similar way, atropine sulfate hydrate and glycerin were dissolved in water for injection to prepare 0.1% (w/v) atropine ophthalmic solution without adjusting pH. The vehicle (control) was isotonic water which was prepared with water for injection and glycerin.
Spectacle lens-induced myopia model was established by placing −15D hard lens on the right eye of mice (C57BL/6J), which was served as the experimental eye, at post-natal days 18. Briefly, a −15D lens was glued to an annulus (with 8 mm base curve) of Velcro. This mating piece was then attached to the Velcro that had been previously glued to the hair around the right experimental eye using a cyanoacrylate. An air gap of 1.5 mm existed between the back part of the lens and the anterior surface of the cornea.
Ocular biometry such as axial length measurement was done using in vivo Optical Low Coherence Interferometry (OLCI-AcMaster). The axial length was measured at post-natal days 33 and 61.
The ratio for suppressing the axial length elongation with each example was calculated by the following equation: […]
Tiotropium (at 0.0001% or 0.01%) or atropine (at 0.1%) was administered once a day post-natal day 33 until day 61 in the spectacle lens-induced myopia model. 7 μL of each drug was administered topically to the right eye in dim red light at the each day.

[1] = system: pupil diameter of the mice; experiment: Evaluation of mydriatic action (pupil diameter after a single eyedrop); assay type: in vivo; conditions: mouse; for Pupil diameter before administration (mm): before the eyedrop (baseline); for Maximum pupil diameter (mm) / Measurement time of maximum pupil diameter: single dose 5 μL to both eyes; for Maximum pupil diameter (mm): longest average among 1, 2, 4 and 24 h
Procedure: Test 3. Evaluation of Mydriatic Action
Tiotropium bromide hydrate and glycerin were dissolved in water for injection to prepare 0.01% (w/v), 0.1% (w/v), and 2% (w/v) tiotropium ophthalmic solutions without adjusting pH.
In a similar way, atropine sulfate hydrate and glycerin were dissolved in water for injection to prepare 0.01% (w/v), and 0.1% (w/v) atropine ophthalmic solutions without adjusting pH.
A single dose (5 μL) of each prepared ophthalmic solution was administered to both eyes of mice (6 eyes of 3 mice per each ophthalmic solution). Before the administration (eyedrop), and 1, 2, 4 and 24 hours after the administration, each pupil diameter of the mice was measured. The measured pupil diameters of the mice at each measurement time per each test sample were averaged to obtain each average value as each average pupil diameter. Among each average pupil diameter at each measurement time, the longest diameter was defined as the maximum pupil diameter.

Myopia Chick Model = experiment: Suppression of axial length elongation in myopia chick model (goggle-induced, intravitreal administration); assay type: in vivo, chicks (white leghorns); conditions: 20 μL intravitreally on day 0, 2 and 4, axial length measured on day 6
Procedure: Test 1. Test About Suppression of Axial Length Elongation in Myopia Chick Model
Tiotropium bromide hydrate was dissolved in saline to prepare 0.1 mM and 10 mM tiotropium solutions.
And, atropine sulfate hydrate was dissolved in saline to prepare 100 mM atropine solution as a reference example.
As a control, saline was used.
A test tube having a diameter of 18 mm was cut off at the level of 10 mm from the bottom, and the cutting circle of the cut-off bottom part was bonded to a flat rubber packing with an adhesive agent to prepare a lens (goggle). 7-day-old chicks (white leghorns) were obtained, and the prepared goggle was attached to the right eye of each chick with an adhesive agent to induce myopia to the chicks. The left eye thereof was its control.
To each of the tiotropium administration groups, 20 μL of each prepared tiotropium solution was intravitreally administered on the day that the goggle was fixed (on day 0), on day 2, and on day 4. […]
On day 6 from the myopia induction, the axial length of right and left eyeballs was measured with a ultrasound axial length measurement ECHOSCAN US-500 (NIDEK CO., LTD.) (A-scan). The difference of axial lengths and the suppression rate of the axial length elongation were calculated by the following formulae.

[2] = 0.0001% (w/v) ophthalmic solution
[3] = 0.01% (w/v) ophthalmic solution
[4] = 0.01% (w/v) ophthalmic solution group
[5] = 0.1% (w/v) ophthalmic solution group

| SMILES | Mean (μm) change in the axial length (Myopia Mice Model; [2]) [μm] | Suppression rate (%) of the axial length elongation (Myopia Mice Model; [2]) [%] | Mean (μm) change in the axial length (Myopia Mice Model; [3]) [μm] | Suppression rate (%) of the axial length elongation (Myopia Mice Model; [3]) [%] | Pupil diameter before administration (mm) [1, 4] [mm] | Maximum pupil diameter (mm) [1, 3] [mm] | Measurement time of maximum pupil diameter [1, 3] [h] | Pupil diameter before administration (mm) [1, 5] [mm] | Maximum pupil diameter (mm) ([1]; 0.1% (w/v) ophthalmic solution) | Measurement time of maximum pupil diameter ([1]; 0.1% (w/v) ophthalmic solution) [h] | Pupil diameter before administration (mm) ([1]; 2% (w/v) ophthalmic solution group) | Maximum pupil diameter (mm) ([1]; 2% (w/v) ophthalmic solution) | Measurement time of maximum pupil diameter ([1]; 2% (w/v) ophthalmic solution) [h] | Suppression rate (%) of the axial length elongation (Myopia Chick Model; 0.1 mM solution) [%] | Mean (μm) change in the axial length (Myopia Mice Model; 0.1% (w/v) ophthalmic solution) [μm] | Suppression rate (%) of the axial length elongation (Myopia Mice Model; 0.1% (w/v) ophthalmic solution) [%] | Suppression rate (%) of the axial length elongation (Myopia Chick Model; 100 mM atropine solution (reference example)) [%] |
| --- | --- | --- | --- | --- | --- | --- | --- | --- | --- | --- | --- | --- | --- | --- | --- | --- | --- |
| C[N+]1(C)C2CC(OC(=O)C(O)(c3cccs3)c3cccs3)CC1C1OC12 (stereo not drawn) [tiotropium, (1α,2β,4β,5α,7β)-7-[(hydroxydi-2-thienylacetyl)oxy]-9,9-dimethyl-3-oxa-9-azoniatricyclo[3.3.1.0^2,4]nonane bromide monohydrate] | 135.84 | 14.20 | 112.95 | 28.66 | 0.36 | 1.24 | 4 | 0.43 | 2.23 | 2 | 0.36 | 2.15 | 1 | 45 |  |  |  |
| CN1[C@@H]2CC[C@H]1C[C@@H](OC(=O)C(CO)c1ccccc1)C2 (some centres unmarked) [atropine, atropine sulfate hydrate] |  |  |  |  | 0.42 | 1.43 | 1 | 0.40 | 1.96 | 2 |  |  |  |  | 111.61 | 29.50 | 83 |
